Experimental data published in ChEMBL document CHEMBL1144071, “Elisabatins A and B: new amphilectane-type diterpenes from the West Indian sea whip Pseudopterogorgia elisabethae” (1999).
The source made the active and inactive calls. The rule behind the calls is not given here.

Experiments:
[1] = system: Human immunodeficiency virus; assay: Antiviral activity against HIV by NCI test; assay type: functional, organism-based
[2] = system: Mycobacterium tuberculosis; assay: Antimycobacterial activity against Mycobacterium tuberculosis at 12.5 ug/mL; assay type: functional

## CC(C)=C[C@@H]1C[C@H](C)c2c(O)cc(C)c3c2C1=C(C)C(=O)C3=O [ELISABATIN A]
[1]
  Activity: inactive
[2]
  Activity: 21%
